Test results published in US20050063931A1, “Hair-follicle treatment,in particular against hair loss” (priority 2001, published 2005).

Columns and labels:
[1] = system: keratinocytes in the hair follicle; test: Proliferation of keratinocytes in the hair follicle, positive Ki67 cells (immunohistochemical); format: in vivo, mice of the strain CBA/J; details: no stress + SP
Method: (§1) The tests were carried out in vivo on mice of the strain CBA/J which were pregnant since, as is known, there is a close correlation between exposure to stress and an increase in the percentage of abortions. In order to determine the effect of stress on hair growth, the following biological and immunological parameters were measured: • the number of cells in apoptosis in the hair follicle, • the proliferation of keratinocytes in the hair follicle, • the activity of some immunocytes, in particular, of macrophages, mast cells, and γδT cells. In accordance with a well-established model for the study of stress, some mice were subjected to predetermined doses of ultrasound (sonic stress) for 7 days, to ascertain its impact both on the activity of the hair follicle and on the immune response of the perifollicular region. Another group of mice was subjected to treatment with substance P (SP), and yet others to sonic stress treatment combined with the administration of a NK1-receptor antagonist substance (indicated SP-RA). Upon completion of the above-mentioned treatments, the parameters listed above were measured again and compared with those measured in mice which had not been subjected to any treatment. The proliferation of the keratinocytes was measured by an immunohistochemical technique by measurement of the positive Ki67 cells (column 5).

γδT cells = test: γδT-cell presence (immunohistochemical); format: in vivo, mice of the strain CBA/J; details: no stress + SP
Method: as §1, with “treatment. γδT-cell presence” for “treatment. The proliferation of the keratinocytes”, “was detected” for “was measured”, “technique” for “technique by measurement of the positive Ki67 cells”, “(column 8).” for “(column 5).”

hair follicle [2] = test: Extent of progress of the hair cycle (HCS) 16 days after epilation, FIG. 1; format: in vivo, mice; details: group C, substance P, no stress
Description: The extent of progress of the cycle in this case was an index of the rate at which the hair follicle progresses from the anagen to the catagen.
With reference to the histogram of FIG. 1, appended to the present description: • the first group of mice (A) underwent no treatment, • the second group (B) was subjected to sonic stress, • the third group (C) was subjected to treatment with substance P, • the fourth group (D) was subjected to treatment with an NK1-receptor antagonist substance, and • the fifth group (E) was subjected to combined stress and NK1-receptor antagonist substance treatment.

hair follicle [3] = details: treatment during telogen stage; cited from earlier work
[4] = system: perifollicular macrophages; test: Macrophage presence by expression of Class II MHC glycoprotein; format: in vivo, mice of the strain CBA/J; details: no stress + SP
Method: as §1, with “Macrophage presence was investigated by detection” for “The proliferation”, “expression” for “keratinocytes was measured by an immunohistochemical technique by measurement”, “Class II MHC glycoprotein” for “the positive Ki67 cells”, “6).” for “5).”

mast cells = test: Mast-cell activity, degranulated mast cells; format: in vivo, mice of the strain CBA/J; details: no stress + SP
Method: The tests were carried out in vivo on mice of the strain CBA/J which were pregnant since, as is known, there is a close correlation between exposure to stress and an increase in the percentage of abortions. In order to determine the effect of stress on hair growth, the following biological and immunological parameters were measured: • the number of cells in apoptosis in the hair follicle, • the proliferation of keratinocytes in the hair follicle, • the activity of some immunocytes, in particular, of macrophages, mast cells, and γδT cells. In accordance with a well-established model for the study of stress, some mice were subjected to predetermined doses of ultrasound (sonic stress) for 7 days, to ascertain its impact both on the activity of the hair follicle and on the immune response of the perifollicular region. Another group of mice was subjected to treatment with substance P (SP), and yet others to sonic stress treatment combined with the administration of a NK1-receptor antagonist substance (indicated SP-RA). Upon completion of the above-mentioned treatments, the parameters listed above were measured again and compared with those measured in mice which had not been subjected to any treatment. Mast-cell activity was measured by measuring the percentage of degranulated mast cells relative to the total mast cells present in the field of vision (column 7).

[5] = Abortions in pregnant mice (sonic stress model); format: in vivo, mice of the strain CBA/J; details: no stress + SP, pregnant CBA/J mice
Method: The tests were carried out in vivo on mice of the strain CBA/J which were pregnant since, as is known, there is a close correlation between exposure to stress and an increase in the percentage of abortions. In accordance with a well-established model for the study of stress, some mice were subjected to predetermined doses of ultrasound (sonic stress) for 7 days, to ascertain its impact both on the activity of the hair follicle and on the immune response of the perifollicular region. Another group of mice was subjected to treatment with substance P (SP), and yet others to sonic stress treatment combined with the administration of a NK1-receptor antagonist substance (indicated SP-RA). Upon completion of the above-mentioned treatments, the parameters listed above were measured again and compared with those measured in mice which had not been subjected to any treatment.

hair follicle [6] = test: Cells in apoptosis in the hair follicle by TUNEL technique; format: in vivo, mice of the strain CBA/J; details: no stress + SP
Method: The tests were carried out in vivo on mice of the strain CBA/J which were pregnant since, as is known, there is a close correlation between exposure to stress and an increase in the percentage of abortions. In order to determine the effect of stress on hair growth, the following biological and immunological parameters were measured: • the number of cells in apoptosis in the hair follicle, • the proliferation of keratinocytes in the hair follicle, • the activity of some immunocytes, in particular, of macrophages, mast cells, and γδT cells. In accordance with a well-established model for the study of stress, some mice were subjected to predetermined doses of ultrasound (sonic stress) for 7 days, to ascertain its impact both on the activity of the hair follicle and on the immune response of the perifollicular region. […] Upon completion of the above-mentioned treatments, the parameters listed above were measured again and compared with those measured in mice which had not been subjected to any treatment. The number of cells in apoptosis was measured by the TUNEL technique in a first region of the hair follicle comprising the infundibulum, the capsular germinal region, and the secondary germinal region (column 3), and in a second, more extensive region comprising, in addition to the first region, the epidermis and the parafollicular dermis (column 4).

Substance: Substance P [SP]
- Ki67+ cells (proliferation of keratinocytes) [1]: 7.7
- γδ TCR+ (γδT-cell presence) (γδT cells): 1.3
- Extent of progress of the cycle (HCS): premature catagen (hair follicle [2]): an effect also well simulated by substance P
- Effect on hair follicle treated during the telogen stage (hair follicle [3]): induced to go on to the subsequent anagen stage
- MHC II (macrophage presence) [4]: 11.0
- MC (percentage of degranulated mast cells relative to total mast cells in the field of vision) (mast cells): 7.9
- % Abortions [5]: 19%
- TUNEL+ cells in apoptosis, first region of the hair follicle (infundibulum, capsular germinal region, secondary germinal region) (hair follicle [6]): 8.0
- TUNEL+ cells in apoptosis, second more extensive region (first region plus epidermis and parafollicular dermis) (hair follicle [6]): 9.0
